This data set can be described thus: Pharmacokinetics of HLJDD components in rat plasma after oral administration of HLJDD (LC-QqQ-MS, non-compartmental). Format: in vivo, Sprague-Dawley rats. To be noted: oral HLJDD extract; for AUC%Extrap / AUMClast / Cmax1 / Cmax2 / HLλz / Tmax1 / Tmax2 / AUC(0-inf) / AUC(0-t) / MRT last / CL/F / Vd/F / AUCinf / AUClast / MRTlast / Vz/F: crude material 3.5 g/kg, plasma, n = 6; for mean AUClast, fold larger in the inflamed group than in the control group: inflamed vs normal rats; for Vd/F: read-out: Vz/F. The method, then: The rats were acclimatized to the facilities for 5 days and screened via the continuous determination of the rectal temperature for two days. […] The control group G1 was injected with the same volume of physiological saline. The ethics committees of Cisco North Biotechnology Co., Ltd. (Beijing, China) and the China Academy of Chinese Medical Sciences (Beijing, China) approved the experimental protocol.
For the PK-PD analysis, cannulas were implanted in each rat’s jugular vein (n = 22). To study the hepatic first-pass effect (HFPE), the jugular vein and the pyloric vein of each rat (n = 5) were cannulated according to the method described by Hye J. Chung et al. with slight modifications. Instead of the portal vein, the pyloric vein was cannulated to minimize the interference of blood flow in the portal vein [41]. The surgery was performed under anesthesia (3% chloral hydrate solution, intraperitoneal injection; 3.5 mL/kg) 5 days prior to the experiment. Rats with jugular vein intubation surgery were divided into four groups: a control group with HLJDD (G1, n = 6), aninflammatory group with HLJDD (G2, n = 6), aninflammatory group with physiological saline (G3, n = 5) and another inflammatory group with HLJDD (G4, n = 5). G1 and G2 were used for the pharmacokinetic study, while G3 and G4 were used for the pharmacodynamic study. Rats with jugular and pyloric vein cannulation for HFPE analysis were assigned to another inflammatory group with HLJDD (G5, n = 5).
The prepared HLJDD-EP solution was administered to the rats (G1, G2, G4 and G5) at 2 mL/100g body weight (crude material content: 3.5 g/kg) by oral gavage, and the G3 group was given the same volume of physiological saline. […] The rectal temperature of rats in the G3 and G4 groups was immediately monitored after each collection of blood. […] Samples were collected in heparinized Eppendorf tubes and centrifuged at 3000 rpm for 15 min. The plasma was stored at -80°C until assay.
The supernatant was dried with nitrogen at 40°C. The residue was re-dissolved in 100 μL of methanol and centrifuged at 15000 rpm for 10 min.
Liquid chromatographic separations of the analytes were performed using a Thermo Scientific Hypersil GOLD column (50 mm× 2.1 mm, 1.9 μm). The mobile phase consisted of acetonitrile (solvent A) and 0.1% formic acid in water (solvent B). […] The flow rate was 0.3 mL/min. The injection volume was 2 μL. […] The optimized ESI source parameters were as follows: gas temperature, 200°C; gas flow, 14 L/min; nebulizer pressure, 20 psi; sheath gas temperature, 400°C; and sheath gas flow, 11 L/min. Analytes were quantitated by monitoring the precursor-product combination in the DMRM mode using ion polarity switching (flavonoids and alkaloids were determined in the positive mode, while iridoids were detected in the negative mode). To ensure the desired abundance of each compound, the CE values and other parameters were optimized and illustrated as follows: cycle time, 300 ms; positive capillary voltage, 3000 v; negative capillary voltage, 2000 v; positive nozzle voltage, 1500 v; negative nozzle voltage, 1000 v; Delta EMV(+), 200 v; Delta EMV(-), 200 v. The optimized mass transition ion pairs (m/z) for analytes and the detection of the conditions of the compounds are shown in S1 Table.
Pharmacokinetic parameters of the determined compounds were processed by the non-compartmental method using Phoenix Winnonlin software (Pharsight Corporation, USA). Linear trapezoidal integration was used to calculate areas under the concentration-time curves (AUC) and areas under the first moment curves (AUMC). The mean residence time (MRT) was determined as AUMC/AUC. The plasma half-life (HLλz), maximum plasma concentration (Cmax), the time to reach Cmax (Tmax) and other parameters following the administration of HLJDD were determined from the observed data. The HFPE was defined as HCR: HCR% = 100×(AUC0−t in the pyloric vein-AUC0−t in the jugular vein)/AUC0−t in the pyloric vein.

The mark [1] stands for this setting: male, Sprague-Dawley, rat, po, 3.5 g/kg, inflamed rats (group M).
Where [2] appears, read: male, Sprague-Dawley, rat, po, 3.5 g/kg, inflamed rats (group M), read-out: CL/F (converted).
The mark [3] stands for this setting: male, Sprague-Dawley, rat, po, 3.5 g/kg, normal rats (group B).

Like-named read-outs stand apart in the source and are kept apart here.

Experimental findings from publication PMC4900566, “Pharmacokinetic-Pharmacodynamic Analysis on Inflammation Rat Model after Oral Administration of Huang Lian Jie Du Decoction” (PLoS ONE, 2016) are described below.

The term AUC(0-inf) denotes the area under the concentration-time curve extrapolated to infinity. The term AUC(0-t) denotes the area under the concentration-time curve up to a stated or last time point. By MRT last is commonly meant a mean duration of stay, worked out from the concentration-time curve. For `COc1c(O)cc(O)c2c(=O)cc(-c3ccccc3)oc12` [wogonin], the “mean AUClast, fold larger in the inflamed group than in the control group” value was 5.4 fold. Moreover, under “inflamed rats (group M)”, the AUC%Extrap is reported as 1.3±0.7%, the AUMClast came out at 442.5±232.9 h*h*ng/ml, the Cmax1 is 3.3 ± 0.7 ng/mL and the Cmax2 worked out at 4.3 ± 1.8 ng/mL. Where the note is “inflamed rats (group M)”, the HLλz was 7.1 ± 2.7 h, the Tmax1 was found to be 0.08 ± 0.0 h and the Tmax2 was 7.3 ± 2.7 h. Moreover, under setting [1], the AUC(0-inf) was 39.2 ± 8 ng·h/mL, the AUC(0-t) was found to be 38.7 ± 8.1 ng·h/mL, the MRT last came out at 11 ± 3.5 h and the Vd/F came to 1710 ± 667 L/kg. Besides, the CL/F under setting [2] was 2740 mL/min/kg. Also, under setting [3], the AUC(0-inf) was found to be 7.4 ± 2.6 ng·h/mL, the AUC(0-t) stood at 7.2 ± 2.6 ng·h/mL, the MRT last stood at 4.3 ± 0.8 h and the Vd/F turned out to be 4010 ± 1350 L/kg. Moreover, where the note is “normal rats (group B)”, the AUC%Extrap is 2.7±2.3%, the AUMClast turned out to be 31.8±14.3 h*h*ng/ml, the Cmax1 was found to be 2.2 ± 1.2 ng/mL and the Cmax2 was 1.6 ± 0.7 ng/mL. Moreover, for the setting “normal rats (group B)”, the HLλz stood at 3.5 ± 1.3 h, the Tmax1 was determined as 0.09 ± 0.03 h and the Tmax2 was found to be 4.0 ± 0.0 h.

In the case of `COc1c(O[C@@H]2O[C@H](C(=O)O)[C@@H](O)[C@H](O)[C@H]2O)cc2oc(-c3ccccc3)cc(=O)c2c1O` [oroxylin A-7-O-glucuronide], for the setting “inflamed rats (group M)”, the AUC%Extrap is reported as 46.2±12.3%, the AUCinf was determined as 2157.4 ± 785.0 ng·h/mL, the AUClast stood at 1209.8 ± 606.4 ng·h/mL and the AUMClast was 18194.0±6706.5 h*h*ng/ml. Further, for the setting “inflamed rats (group M)”, the CL/F worked out at 202 ± 70 mL/min/kg, the Cmax1 worked out at 108.7 ± 47.6 ng/mL, the Cmax2 amounted to 65.5 ± 18.2 ng/mL and the HLλz was 20.1 ± 6.1 h. Besides, for the setting “inflamed rats (group M)”, the MRTlast was 12.5 ± 2.3 h, the Tmax1 came out at 0.09 ± 0.03 h, the Tmax2 worked out at 9.6 ± 2.2 h and the Vz/F was 322.4 ± 22.0 L/kg. In addition, where the note is “normal rats (group B)”, the AUC%Extrap is recorded as 10.3±6.8%, the AUCinf was found to be 486.8 ± 96.9 ng·h/mL, the AUClast was determined as 440.7 ± 106.9 ng·h/mL and the AUMClast came to 1935.2±487.3 h*h*ng/ml. In addition, for the setting “normal rats (group B)”, the CL/F was 845 ± 225 mL/min/kg, the Cmax1 is 106.9 ± 43.8 ng/mL, the Cmax2 is 85.8 ± 40.3 ng/mL and the HLλz was 3.2 ± 0.9 h. Under “normal rats (group B)”, the MRTlast is 4.4 ± 0.5 h, the Tmax1 turned out to be 0.09 ± 0.03 h, the Tmax2 worked out at 4.0 ± 0.0 h and the Vz/F was determined as 247.8 ± 140.4 L/kg.

With `COc1c(O[C@@H]2O[C@H](C(=O)O)[C@@H](O)[C@H](O)[C@H]2O)cc(O)c2c(=O)cc(-c3ccccc3)oc12` [wogonoside], for the setting “inflamed rats (group M)”, the AUC%Extrap was determined as 17.3±13.8%, the AUCinf is 8380.9 ± 1944.5 ng·h/mL, the AUClast worked out at 6870.4 ± 1786.5 ng·h/mL and the AUMClast stood at 92756.1±44786.8 h*h*ng/ml. Further, for the setting “inflamed rats (group M)”, the CL/F was 190 ± 45 mL/min/kg, the Cmax1 was determined as 571.9 ± 183.4 ng/mL, the Cmax2 was found to be 323.9 ± 52.5 ng/mL and the HLλz came to 12.2 ± 5.9 h. Also, for the setting “inflamed rats (group M)”, the MRTlast is 12.9 ± 3.0 h, the Tmax1 stood at 0.16 ± 0.08 h, the Tmax2 is 8.7 ± 3.0 h and the Vz/F was found to be 188.6 ± 72.3 L/kg. In addition, under “normal rats (group B)”, the AUC%Extrap is recorded as 9.6±6.6%, the AUCinf came out at 3615.4 ± 872.3 ng·h/mL, the AUClast was found to be 3302.3 ± 975.1 ng·h/mL and the AUMClast came out at 15357.0±3545.6 h*h*ng/ml. Also, for the setting “normal rats (group B)”, the CL/F was 442 ± 117 mL/min/kg, the Cmax1 is 492.9 ± 152.9 ng/mL, the Cmax2 amounted to 517.7 ± 173.8 ng/mL and the HLλz stood at 3.0 ± 1.0 h. Also, where the note is “normal rats (group B)”, the MRTlast is 4.7 ± 0.5 h, the Tmax1 came out at 0.11 ± 0.04 h, the Tmax2 came to 4.3 ± 0.8 h and the Vz/F came to 118.7 ± 58.0 L/kg.

On to `COc1ccc2c(c1O)-c1c(O)c(OC)cc3c1[C@H](C2)[N+](C)(C)CC3` [magnolflorine], for which the “mean AUClast, fold larger in the inflamed group than in the control group” value is 1.6 fold. Moreover, for the setting “inflamed rats (group M)”, the AUC%Extrap was 17.6±8.0%, the AUCinf stood at 29.3 ± 13.8 ng·h/mL, the AUClast is 24.9 ± 14.6 ng·h/mL and the AUMClast is given as 97.9±55.4 h*h*ng/ml. For the same molecule, where the note is “inflamed rats (group M)”, the Cmax1 amounted to 6.0 ± 1.7 ng/mL, the HLλz was found to be 4.3 ± 2.2 h, the MRTlast came out at 4.1 ± 1.9 h and the Tmax1 was found to be 0.6 ± 0.3 h. For the setting “inflamed rats (group M)”, the Vz/F came out at 607.8 ± 396.5 L/kg. Under “normal rats (group B)”, the AUC%Extrap amounted to 6.2±2.4%, the AUCinf was found to be 17.0 ± 2.0 ng·h/mL, the AUClast came out at 16.0 ± 2.0 ng·h/mL and the AUMClast stood at 29.5±5.8 h*h*ng/ml. Further, for the setting “normal rats (group B)”, the CL/F stood at 2377 ± 265 mL/min/kg, the Cmax1 came to 6.5 ± 1.1 ng/mL, the HLλz was determined as 1.6 ± 0.4 h and the MRTlast is 1.8 ± 0.1 h. In addition, for the setting “normal rats (group B)”, the Tmax1 was 0.6 ± 0.2 h and the Vz/F was found to be 339.5 ± 97.3 L/kg.

With `COc1c(O)cc2oc(-c3ccccc3)cc(=O)c2c1O` [oroxylin A], where the note is “inflamed rats (group M)”, the AUC%Extrap is 13.4±8.6%, the AUMClast was found to be 365.4±192.9 h*h*ng/ml, the Cmax1 worked out at 2.5 ± 1.1 ng/mL and the Cmax2 is 2.3 ± 0.8 ng/mL. Further, under “inflamed rats (group M)”, the HLλz came out at 16.3 ± 8.8 h, the Tmax1 was 0.08 ± 0.0 h and the Tmax2 was found to be 7.0 ± 3.0 h. For the same molecule, under setting [1], the AUC(0-inf) turned out to be 24.6 ± 6.1 ng·h/mL, the AUC(0-t) was found to be 21.1 ± 4.1 ng·h/mL, the MRT last was determined as 16.5 ± 6.2 h and the Vd/F turned out to be 2820 ± 507 L/kg. The CL/F under setting [2] was 1790 mL/min/kg. In addition, under setting [3], the AUC(0-inf) stood at 2.4 ± 0.5 ng·h/mL, the area under the curve AUC(0-t) stood at 2.3 ± 0.5 ng·h/mL, the mean residence time (MRT last) was 3 ± 0.6 h and the Vd/F was determined as 2500 ± 1080 L/kg. For the setting “normal rats (group B)”, the AUC%Extrap is 5.3±3.4%, the AUMClast stood at 7.1±2.7 h*h*ng/ml, the Cmax1 was found to be 1.5 ± 0.6 ng/mL and the Cmax2 came to 0.4 ± 0.1 ng/mL. Moreover, under “normal rats (group B)”, the HLλz stood at 1.7 ± 0.9 h, the Tmax1 worked out at 0.08 ± 0.0 h and the Tmax2 was found to be 4.0 ± 0.0 h.
